Experiments:
NFkB-p65 = test: Western blot of cytoplasmic and nuclear NFkB-p65 and phospho-serine 276 NFkB-p65 in LPS-induced BV2 microglia; type: cell-based; conditions: BV2 cells, 22.0 μg/ml, 30 min pre-treatment then LPS 30 min; for inhibition of NFkB-p65 nucleotranslocation (cytosolic and nuclear NFkB-p65 levels): FIGS. 3 and 4; for inhibition of NFkB-p65 serine 276 phosphorylation: cytoplasmic and nuclear, FIGS. 5 and 6
Method: (§1) Western blot analysis was performed in multiple varying formats before optimization was achieved. The BV2 microglia cell line was cultured in Dulbecco's Modified Eagle's Medium (DMEM)—complete medium. The complete medium consisted of DMEM, 1% Ampicillin, and 10% Fetal Bovine Serum (FBS). BV2 microglia cells, at a cell count of approximately 2×10^6, were seeded in each well (6 wells per plate) with 2.0 ml complete medium and cultured overnight in a ThermaForma HepaFilter Series II Coe Incubator at 37° Celsius. Upon establishing confluence, subconfluent cells were washed out and the wells were prepared with drug pre-treatment after overnight incubation.
(§2) The test drugs (curcuminoids) were procured as follows: curcumin I research standard (03926) (ChromaDex Irvine, Calif. USA) (97.7% purity); curcumin II research standard (04230) (ChromaDex Irvine, Calif. USA) (97.3%); curcumin III research standard (B6938) (Sigma-Aldrich St. Louis, Mo., USA) (97.7% purity); curcumin extract (curcumin I—77.7%, curcumin II—16.9%, curcumin III—0.9%) research standard (03928) (ChromaDex Irvine, Calif. USA) (95.3% purity); and Lipopolysaccharide (LPS) from E. Coli (L2630) (Sigma-Aldrich St. Louis, Mo., USA).
Curcuminoids are not soluble in aqueous medium due to their hydrophobic characteristic. However, curcuminoid extracts are soluble in polar organic solvents, such as DMSO and acetone. In this Example, each curcuminoid preparation was first dissolved in DMSO. DMSO was used in the drug preparation at 0.2%. The drug/DMSO solution was subsequently dissolved in DMEM to achieve a final drug concentration for each curcuminoid preparation tested—22.0 μg/ml curcuminoid. The DMEM/drug solution was used to replace the culture DMEM well medium and incubated for 30 minutes at 37-degrees Celsius in a ThermaForma incubator. At 31 minutes, lipopolysaccharide (LPS at […] final well concentration) induction of the cells was executed, except for the DMSO-only well to stimulate cell response amidst drug pre-treatment and without drug treatment.
The plates were then incubated for another 30 minutes after LPS stimulation. Upon removal from incubation, the cell medium was carefully removed and cells were washed, scraped, and collected with phosphate-buffered saline (PBS). Using a ThermoFisher Scientific NE-PER Nuclear and Cytoplasmic Extraction Kit (obtained from ThermoFisher Scientific Burlington, Ontario Canada), the cells were lysed and the cytoplasmic and nuclear protein fractions were collected and separated with the intention of probing each fraction for subcellular changes in cytoplasmic and nuclear proteins (as described further below).
Total protein concentration for each fraction was determined using a Bio Rad Protein Assay that is based on the Bradford Assay (dye-binding method). The total protein concentration determination was made prior to test sample preparation for gel electrophoresis execution (described below). The protein concentration colorimetric assay kit was purchased from Bio Rad Laboratories Canada Ltd. (Montreal, Quebec Canada). Each test sample was then prepared for loading and subjected to gel electrophoresis (SDS-PAGE) using a BioRad stain free gel system (Catalog No. 161-0181) and subsequently transferred/blotted to a nitrocellulose membrane (ThermoFisher Scientific Product No. 88018), blocked, and prepared for primary antibody treatment for each target.
The targets analyzed in the Western Blot included NFkB-p65 and its nucleocytoplasmic translocation, as well as kinases (including MSK1) and their covalent modifications upstream of and involved in the regulation of NFkB. Antibodies against NFkB-p65 (Ab16502) were procured from Abcam Inc. (Toronto, Ontario, Canada) as a primary antibody to probe for total NFkB-p65 levels in both nuclear and cytoplasmic fractions. […]

MSK1 = biological target: T1, MSK1 (Mus musculus, UniProt Q8C050); test: Western blot of cytoplasmic and nuclear MSK1 and phospho-serine 376 MSK1 in LPS-induced BV2 microglia; type: cell-based; conditions: BV2 cells, 22.0 μg/ml, 30 min pre-treatment then LPS 30 min
T1 construct: the cells were lysed and the cytoplasmic and nuclear protein fractions were collected; endogenous in cells; host or cells: BV2 microglia, LPS-induced
Method: as §1, §2
Curcuminoids are not soluble in aqueous medium due to their hydrophobic characteristic. However, curcuminoid extracts are soluble in polar organic solvents, such as DMSO and acetone. In this Example, each curcuminoid preparation was first dissolved in DMSO. DMSO was used in the drug preparation at 0.2%. The drug/DMSO solution was subsequently dissolved in DMEM to achieve a final drug concentration for each curcuminoid preparation tested—22.0 μg/ml curcuminoid. […]
Total protein concentration for each fraction was determined using a Bio Rad Protein Assay that is based on the Bradford Assay (dye-binding method). […]
The targets analyzed in the Western Blot included NFkB-p65 and its nucleocytoplasmic translocation, as well as kinases (including MSK1) and their covalent modifications upstream of and involved in the regulation of NFkB. […]

T1 sequence (Q8C050 whole entry): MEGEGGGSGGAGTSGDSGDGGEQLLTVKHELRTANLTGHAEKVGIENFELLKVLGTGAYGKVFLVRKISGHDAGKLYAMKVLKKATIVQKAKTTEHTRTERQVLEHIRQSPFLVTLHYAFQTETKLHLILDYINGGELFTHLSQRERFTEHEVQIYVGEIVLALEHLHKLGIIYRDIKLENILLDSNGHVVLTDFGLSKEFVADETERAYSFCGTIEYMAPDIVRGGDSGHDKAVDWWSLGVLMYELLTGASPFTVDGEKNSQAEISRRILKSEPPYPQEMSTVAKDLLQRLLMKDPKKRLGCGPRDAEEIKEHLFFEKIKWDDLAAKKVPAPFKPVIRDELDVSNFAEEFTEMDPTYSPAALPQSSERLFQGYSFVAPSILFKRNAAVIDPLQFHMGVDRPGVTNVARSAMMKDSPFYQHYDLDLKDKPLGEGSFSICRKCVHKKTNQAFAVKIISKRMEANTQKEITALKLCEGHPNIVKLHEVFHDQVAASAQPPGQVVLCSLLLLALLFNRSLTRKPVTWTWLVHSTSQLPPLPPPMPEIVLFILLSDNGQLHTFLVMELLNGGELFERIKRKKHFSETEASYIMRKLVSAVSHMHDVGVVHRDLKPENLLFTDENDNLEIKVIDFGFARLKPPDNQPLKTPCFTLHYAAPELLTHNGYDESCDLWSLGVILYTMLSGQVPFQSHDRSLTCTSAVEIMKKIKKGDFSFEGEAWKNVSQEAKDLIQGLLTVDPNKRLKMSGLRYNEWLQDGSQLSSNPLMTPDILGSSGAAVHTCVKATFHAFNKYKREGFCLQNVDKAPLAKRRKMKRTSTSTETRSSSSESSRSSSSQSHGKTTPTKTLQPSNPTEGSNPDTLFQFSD

| Structure (SMILES) | inhibition of NFkB-p65 nucleotranslocation (cytosolic and nuclear NFkB-p65 levels) (NFkB-p65) | inhibition of NFkB-p65 serine 276 phosphorylation (NFkB-p65) | inhibition of MSK1 serine 376 phosphorylation (MSK1; cytoplasmic and nuclear, FIGS. 9 and 10) | inhibition of MSK1 protein levels in the cytoplasm (MSK1; FIG. 7) | inhibition of MSK1 protein levels in the nucleus (MSK1; FIG. 8) |
| --- | --- | --- | --- | --- | --- |
| COc1cc(/C=C/C(=O)CC(=O)/C=C/c2ccc(O)cc2)ccc1O [curcumin II, (1E,6E)-1-(4-Hydroxy-3-methoxyphenyl)-7-(4-hydroxyphenyl)hepta-1,6-diene-3,5-dione] | not significantly inhibited | moderately inhibit | inhibit |  |  |
| COc1cc(/C=C/C(=O)/C=C(O)/C=C/c2ccc(O)c(OC)c2)ccc1O [curcumin I, (1E,6E)-1,7-Bis(4-hydroxy-3-methoxyphenyl)-1,6-heptadiene-3,5-dione] | not significantly inhibited | moderately inhibit |  |  |  |
| O=C(/C=C/c1ccc(O)cc1)CC(=O)/C=C/c1ccc(O)cc1 [curcumin III, (1E,6E)-1,7-bis(4-hydroxyphenyl)hepta-1,6-diene-3,5-dione] | not significantly inhibited | moderately inhibit |  | significantly inhibited and downregulated | significantly inhibited and downregulated |

Source: US9782364B1, “Curcumin-based compositions and methods of use thereof” (priority 2015, dated 2017)
